Measured values from US20120004235A1, “METHODS TO TREAT CANCER” (Rutgers, The State University of New Jersey, priority 2009, published 2012).
Read-outs that look alike come from different tables or passages of the source.

How the values were obtained:
[1] = tested on: HT29 Human Colon Carcinoma; experiment: Human tumor cell CFU assay (Test B); type: cell-based; conditions: colony formation, continuous exposure 7-9 days; for IC50: read-out: IC50 Values (95% Lower and Upper Confidence Intervals); for IC90: read-out: IC90 Values (95% Lower and Upper Confidence Intervals)
Procedure: (§1) For human tumor cell CFU assays, the cell lines which grow as monolayers, MDA-MB-231, HCT116, HT29, NCI-H460, KB3-1 and KBV-1 were grown in RPMI medium (Invitrogen/Gibco, Grand Island, N.Y.) supplemented with 5% fetal bovine serum (Invitrogen/Gibco, Grand Island, NY). The RPMI-8226 cell line grows in suspension.
(§2) For experiments, human tumor cells (1 103) were plated in 6-well plates in medium supplemented with 5% or 10% fetal bovine serum. The compounds were tested in concentrations over the range from 0.01 to 100 nanomolar in half-log intervals covering […] along with untreated control wells. In later experiments some cases the concentration ranges were refined to focus on the region of interest in the response curves. Each compound concentration was tested in duplicate wells. Cultures were exposed to the compounds continuously for 7-9 days at 37° C. in a humidified atmosphere of 5% carbon dioxide balance air. Each experiment was performed three independent times. Colonies were defined as clusters containing 30 or more cells.
(§3) For the monolayer cultures, colonies were visualized by staining with a preformulated crystal violet solution (Fisher Cat #291-472) which contained 0.41% crystal violet, 12% ethanol balance deionized water. To visualize the colonies, the medium was removed by aspiration; the monolayer was rinsed once with phosphate buffered saline which was removed by aspiration. Three drops of crystal violet solution was added to each well and the 6-well plate was rotated so that the crystal violet solution covered the surface area of each well. After 5 minutes exposure time, the wells were rinsed twice with phosphate buffered saline and the colonies were visible.
(§4) The values were expressed as the mean values with lower and upper 95% confidence intervals in nanomolar concentrations.

[2] = tested on: KB3-1 HeLa Human Cervical Carcinoma; experiment: Human tumor cell CFU assay (Test B); type: cell-based; conditions: colony formation, continuous exposure 7-9 days; for IC90: read-out: IC90 Values (95% Lower and Upper Confidence Intervals)
Procedure: as §1, §2, §3, §4

[3] = tested on: KBH5.0 BCRP+ KB3-1 Subline; experiment: Human tumor cell CFU assay (Test B); type: cell-based; conditions: colony formation, continuous exposure 7-9 days; for IC50: read-out: IC50 Values (95% Lower and Upper Confidence Intervals)
Procedure: as §1, §2, §3, §4

[4] = tested on: MDA-MB-231 Human Breast Carcinoma; experiment: Human tumor cell CFU assay (Test B); type: cell-based; conditions: colony formation, continuous exposure 7-9 days; for IC50: read-out: IC50 Values (95% Lower and Upper Confidence Intervals); for IC90: read-out: IC90 Values (95% Lower and Upper Confidence Intervals)
Procedure: as §1, §2, §3, §4

[5] = tested on: NCI-H460 Human Non-small Cell Lung Carcinoma; experiment: Human tumor cell CFU assay (Test B); type: cell-based; conditions: colony formation, continuous exposure 7-9 days; for IC50: read-out: IC50 Values (95% Lower and Upper Confidence Intervals); for IC90: read-out: IC90 Values (95% Lower and Upper Confidence Intervals)
Procedure: as §1, §2, §3, §4

[6] = tested on: HCT116 Human Colon Carcinoma; experiment: Human tumor cell CFU assay (Test B); type: cell-based; conditions: colony formation, continuous exposure 7-9 days; for IC50: read-out: IC50 Values (95% Lower and Upper Confidence Intervals); for IC90: read-out: IC90 Values (95% Lower and Upper Confidence Intervals)
Procedure: as §1, §2, §3, §4

[7] = tested on: KB-V1 MDR1+ KB3-1 Subline; experiment: Human tumor cell CFU assay (Test B); type: cell-based; conditions: colony formation, continuous exposure 7-9 days
Procedure: as §1, §2, §3, §4

[8] = tested on: RPMI-8226 Human Multiple Myeloma; experiment: Human tumor cell CFU assay (Test B); type: cell-based; conditions: colony formation in agar, continuous exposure 7-9 days
Procedure: as §1
For human tumor cell CFU assays, RPMI-8226 cells were grown in 0.35% agar in DMEM-F12 medium supplemented with 10% fetal bovine serum over a base layer of 0.5% agar in DMEM-F12 medium supplemented with 10% fetal bovine serum
as §2, §4

[9] = tested on: MDA-MB-231 human breast tumor xenograft; conditions: qd×5
[10] = tested on: NCI-H460 human non-small cell lung carcinoma xenograft; experiment: Compound 2 citrate salt vs. NCI-H460 xenograft model (pemetrexed, topotecan, cisplatin controls); conditions: qd×5

COc1cc2c(=O)n(CCCN(C)C)c3c4cc5c(cc4ncc3c2cc1OC)OCO5 [Example 11, 8,9-Dimethoxy-2,3-methylenedioxy-5-[3-(N,N-dimethylamino)propyl]-5H-dibenzo[c,h]1,6-naphthyridin-6-one]
melting point: 262 to 264 °C (dec.)

COc1cc2c(=O)n(CCN(C)C)c3c4cc5c(cc4ncc3c2cc1OC)OCO5 [Compound 1]
IC50 ([1]; Homo sapiens, HT-29): 1.3 nM
IC90 ([1]; Homo sapiens, HT-29): 4.3 nM
IC50 ([2]; Homo sapiens): 1.5 nM
IC90 ([2]; Homo sapiens): 5.2 nM
IC90 ([3]; Homo sapiens, KB 3-1): 5.8 nM
IC50 ([3]; Homo sapiens, KB 3-1): 1.8 nM
IC50 ([4]; Homo sapiens, MDA-MB-231): 0.3 nM
IC90 ([4]; Homo sapiens, MDA-MB-231): 1.2 nM
IC50 ([5]; Homo sapiens, NCI-H460): 2.3 nM
IC90 ([5]; Homo sapiens, NCI-H460): 6.2 nM
IC50 ([6]; Homo sapiens, HCT-116): 1.7 nM
IC90 ([6]; Homo sapiens, HCT-116): 5.6 nM
IC50 ([7]; Homo sapiens): 1.8 nM
IC90 ([7]; Homo sapiens): 5.7 nM
IC50 ([8]; Homo sapiens, RPMI-8226): 1.8 nM
IC90 ([8]; Homo sapiens, RPMI-8226): 5.8 nM

COc1cc2c(=O)n(CCN3CCCCC3)c3c4cc5c(cc4nnc3c2cc1OC)OCO5 [Example 6, 2,3-Dimethoxy-8,9-methylenedioxy-11-[2-(piperidin-1-yl)ethyl]-11H-5,6,11-triaza-chrysen-12-one]
melting point: 294 to 295 °C

COc1cc2c(C(=O)NCC(C)(C)N(C)C)cc3c4cc5c(cc4ncc3c2cc1OC)OCO5 [Compound 3]
IC50 ([1]; Homo sapiens, HT-29): 0.5 nM
IC90 ([1]; Homo sapiens, HT-29): 1.5 nM
IC50 ([2]; Homo sapiens): 0.8 nM
IC90 ([2]; Homo sapiens): 2.8 nM
IC90 ([3]; Homo sapiens, KB 3-1): 2.3 nM
IC50 ([3]; Homo sapiens, KB 3-1): 0.6 nM
IC50 ([4]; Homo sapiens, MDA-MB-231): 0.5 nM
IC90 ([4]; Homo sapiens, MDA-MB-231): 0.9 nM
IC50 ([5]; Homo sapiens, NCI-H460): 0.9 nM
IC90 ([5]; Homo sapiens, NCI-H460): 3 nM
IC50 ([6]; Homo sapiens, HCT-116): 0.4 nM
IC90 ([6]; Homo sapiens, HCT-116): 1.7 nM
IC50 ([7]; Homo sapiens): 0.6 nM
IC90 ([7]; Homo sapiens): 2.8 nM
IC50 ([8]; Homo sapiens, RPMI-8226): 0.7 nM
IC90 ([8]; Homo sapiens, RPMI-8226): 2.5 nM

COc1cc2c(cc1OC)-c1cnc3cc4c(cc3c1N(CCN(C)C)C2)OCO4 [Example 17, 8,9-Dimethoxy-2,3-methylenedioxy-5-[2-(N,N-dimethylamino)ethyl]-5,6-dihydro-dibenzo[c,h]1,6-naphthyridine]
melting point: 271 to 273 °C (dec.)

COc1cc2c(=O)n(CCN(C)C(C)C)c3c4cc5c(cc4ncc3c2cc1OC)OCO5 [Compound 4]
IC50 ([1]; Homo sapiens, HT-29): 0.5 nM
IC90 ([1]; Homo sapiens, HT-29): 1.9 nM
IC50 ([2]; Homo sapiens): 1 nM
IC90 ([2]; Homo sapiens): 4 nM
IC90 ([3]; Homo sapiens, KB 3-1): 6 nM
IC50 ([3]; Homo sapiens, KB 3-1): 1.3 nM
IC50 ([4]; Homo sapiens, MDA-MB-231): 0.3 nM
IC90 ([4]; Homo sapiens, MDA-MB-231): 1 nM
IC50 ([5]; Homo sapiens, NCI-H460): 3.4 nM
IC90 ([5]; Homo sapiens, NCI-H460): 11 nM
IC50 ([6]; Homo sapiens, HCT-116): 1.2 nM
IC90 ([6]; Homo sapiens, HCT-116): 4.4 nM
IC50 ([7]; Homo sapiens): 1.4 nM
IC90 ([7]; Homo sapiens): 6.9 nM
IC50 ([8]; Homo sapiens, RPMI-8226): 0.4 nM
IC90 ([8]; Homo sapiens, RPMI-8226): 1.5 nM

COc1cc2c(cc1OC)-c1cnc3cc4c(cc3c1N(C(C)CN(C)C)C2)OCO4 (stereo not shown) [Example 18, 8,9-Dimethoxy-2,3-methylenedioxy-5-[2-(N,N-dimethylamino)-1-methylethyl]-5,6-dihydro-dibenzo[c,h]1,6-naphthyridine]
melting point: 153 to 154 °C

COc1cc2c(=O)n(CCN3CCCC3)c3c4cc5c(cc4ncc3c2cc1OC)OCO5 [Example 9, 8,9-Dimethoxy-2,3-methylenedioxy-5-[2-(pyrrolidin-1-yl)ethyl]-5H-dibenzo[c,h]1,6-naphthyridin-6-one]
melting point: 255 to 257 °C (dec.)

O=C(O)C(=O)O.[NH-][C@@H]1CCCC[C@H]1[NH-].[Pt+2] [Oxaliplatin, reference compound]
delay in tumor growth ([9]; 5 and 6.5 mg/kg/day IP): 13 days
tolerability ([9]; 5 and 6.5 mg/kg/day IP): well tolerated
TGI (T/C) ([9]; both dosages, 5 and 6.5 mg/kg/day IP): 45.1-47.6%

COc1cccc2c1C(=O)c1c(O)c3c(c(O)c1C2=O)C[C@@](O)(C(=O)CO)C[C@@H]3O[C@H]1C[C@H](N)[C@H](O)[C@H](C)O1 [Doxorubicin, reference compound]
toxic deaths ([9]; both dosages, 2.5 and 3 mg/kg/day IP): there were toxic deaths

CCN(CC)CCn1c(=O)c2cc(OC)c(OC)cc2c2cnc3cc4c(cc3c21)OCO4 [Example 19, 8,9-Dimethoxy-2,3-methylenedioxy-5-[2-(N,N-diethylamino)ethyl]-5H-dibenzo[c,h]1,6-naphthyridin-6-one]
melting point: 221 to 223 °C (dec.)

COc1cc2c(=O)n(CCN3CCCC3)c3c4cc5c(cc4nnc3c2cc1OC)OCO5 [Example 5, 2,3-Dimethoxy-8,9-methylenedioxy-11-[2-(pyrrolidin-1-yl)ethyl]-11H-5,6,11-triaza-chrysen-12-one]
melting point: 229 °C

CCc1c2c(nc3ccc(O)cc13)-c1cc3c(c(=O)n1C2)COC(=O)[C@]3(O)CC [SN-38, 7-ethyl-10-hydroxyl-camptothecin, reference compound]
IC50 [1]: 0.5 nM
IC90 [1]: 1.8 nM
IC50 [2]: 5.3 nM
IC90 [2]: 19.1 nM
IC90 [3]: 18.8 nM
IC50 [3]: 6.1 nM
IC50 [4]: 0.7 nM
IC90 [4]: 2 nM
IC50 [5]: 4.7 nM
IC90 [5]: 13.3 nM
IC50 [6]: 2.7 nM
IC90 [6]: 8.4 nM
IC50 [7]: 15 nM
IC90 [7]: 55 nM
IC50 [8]: 0.9 nM
IC90 [8]: 3 nM

COc1cc2c(=O)n(CCOCCO)c3c4cc5c(cc4ncc3c2cc1OC)OCO5 [Example 14, 8,9-Dimethoxy-2,3-methylenedioxy-5-[2-(2-hydroxyethoxy)ethyl]-5H-dibenzo[c,h]1,6-naphthyridin-6-one]
melting point: 235 °C

COc1cc2c(=O)n(C(C)CN(C)C)c3c4cc5c(cc4ncc3c2cc1OC)OCO5 (stereo not shown) [Example 8, 8,9-Dimethoxy-2,3-methylenedioxy-5-[2-(N,N-dimethylamino)-1-methylethyl]-5H-dibenzo[c,h]1,6-naphthyridin-6-one]
melting point: 186 to 187 °C

COc1cc2c(=O)n(CCO)c3c4cc5c(cc4ncc3c2cc1OC)OCO5 [Example 13, 8,9-Dimethoxy-2,3-methylenedioxy-5-[2-(hydroxy)ethyl]-5H-dibenzo[c,h]1,6-naphthyridin-6-one]
melting point: 285 to 286 °C

Nc1nc2[nH]cc(CCc3ccc(C(=O)N[C@@H](CCC(=O)O)C(=O)O)cc3)c2c(=O)[nH]1 [Pemetrexed, reference compound]
antitumor activity ([10]; 100 and 150 mg/kg/day IP): not considered active
body weight loss ([10]; 100 and 150 mg/kg/day IP): ≤ 20%

CC[C@@]1(O)C(=O)OCc2c1cc1n(c2=O)Cc2cc3c(CN(C)C)c(O)ccc3nc2-1 [Topotecan, reference compound]
IC50 ([1]; Homo sapiens, HT-29): 2.9 nM
IC90 ([1]; Homo sapiens, HT-29): 11.2 nM
IC50 ([2]; Homo sapiens): 32.7 nM
IC90 ([2]; Homo sapiens): 107 nM
IC90 ([3]; Homo sapiens, KB 3-1): 115 nM
IC50 ([3]; Homo sapiens, KB 3-1): 32 nM
IC50 ([4]; Homo sapiens, MDA-MB-231): 5.6 nM
IC90 ([4]; Homo sapiens, MDA-MB-231): 19.5 nM
IC50 ([5]; Homo sapiens, NCI-H460): 18.2 nM
IC90 ([5]; Homo sapiens, NCI-H460): 52.5 nM
IC50 ([6]; Homo sapiens, HCT-116): 8.5 nM
IC90 ([6]; Homo sapiens, HCT-116): 26.3 nM
IC50 ([7]; Homo sapiens): 75 nM
IC90 ([7]; Homo sapiens): 257 nM
IC50 ([8]; Homo sapiens, RPMI-8226): 12.7 nM
IC90 ([8]; Homo sapiens, RPMI-8226): 43.2 nM
body weight loss ([10]; 2 and 2.5 mg/kg/day IP): > 30%
